Laboratory results as given in paper PMC3004258, “Structure of the inhibitor complex of old yellow enzyme from Trypanosoma cruzi” (Journal of Synchrotron Radiation, 2010).

Target: T1, TcOYE (old yellow enzyme from Trypanosoma cruzi; PGF2alpha synthase) (Trypanosoma cruzi, UniProt Q8I6L9)
T1 construct: gene TcPGFS; recombinant, overexpressed in E. coli and purified; 2 molecules per asymmetric unit; residues up to at least 379
T1 sequence (Q8I6L9 1-379): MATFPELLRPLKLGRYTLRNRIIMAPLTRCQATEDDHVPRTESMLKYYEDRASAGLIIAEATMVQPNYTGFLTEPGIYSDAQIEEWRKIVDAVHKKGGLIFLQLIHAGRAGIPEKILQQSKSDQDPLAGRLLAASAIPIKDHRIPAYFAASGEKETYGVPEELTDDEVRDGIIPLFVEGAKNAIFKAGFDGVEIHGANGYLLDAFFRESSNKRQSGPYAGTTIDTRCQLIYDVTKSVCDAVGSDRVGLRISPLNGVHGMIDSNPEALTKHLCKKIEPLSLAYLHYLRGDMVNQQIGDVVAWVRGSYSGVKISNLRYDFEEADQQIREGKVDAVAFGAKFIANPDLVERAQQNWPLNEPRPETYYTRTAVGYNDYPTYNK
Assay: X-ray crystallography, […] Å
Format: binding
Details: TcOYE/FMN binary complex; prosthetic group at C-terminal ends of barrel strands

Cc1cc2nc3c(=O)[nH]c(=O)nc-3n(C[C@H](O)[C@H](O)[C@H](O)COP(=O)(O)O)c2cc1C [FMN]
X-ray crystallography, 1.7 Å: The structure of TcOYE/FMN binary complex was determined by molecular replacement methods
